From patent publication US6281356A, “Substituted pyrroles” (Hoffmann-La Roche Inc., priority 2000, dated 2001)
Where a name gives a salt, the structure may show the parent alone.

Test system: epithelial breast carcinoma cell line (MDAMB-435)
Assay: Antiproliferative activity (growth inhibition, MTT), epithelial breast carcinoma cell line MDAMB-435
Format: cell-based
Conditions: Homo sapiens, MDA-MB-435, 120 h, 5 days post drug addition, 0.1% DMSO, read-out: IC50 (growth inhibition of MDAMB-435 cells)
Protocol: The epithelial breast carcinoma cell line (MDAMB-435) was purchased from ATCC (American Type Cell Culture Collection) and was grown in culture medium as recommended by ATCC. For analysis of the effect of various compounds of formula I on the growth of these cells, the cells were plated at a concentration of 1500 cells/well in a 96 well tissue culture plate ("test plate"). The day after the cells were plated, the compounds to be analyzed were dissolved in 100% DMSO (dimethyl sulfoxide) to yield at 10 mM stock solution. Each compound was diluted in H2 O to 1 mM and was added to triplicate wells in the first row of a 96 well master plate containing medium to yield a final concentration of 40 μM. The compounds were then serially diluted in medium in the "master plate". The diluted compound(s) were then transferred to test plates containing cells. A row of vehicle "control cells" received DMSO. The final concentration of DMSO in each well was 0.1%. 5 days post drug addition, the plate was analyzed as described below.
MTT (3-(4-5 methyl thiazole-2-yl)-2,5-diphenyl tetrazolium bromide; thiazolyl blue) was added to each well to yield a final concentration of 1 mg/ml. The plate was then incubated at 37° C. for 21/2-3 hours. The MTT-containing medium was then removed and 50 μl of 100% ethanol was added to each well to dissolve the formazan. The absorbences were then read using an automated plate reader (Bio-tek microplate reader). IC50 s were calculated using the Reed and Munsch equation, see Am. J. Hygiene Vol. 27 pgs. 493-497,1938.

| SMILES | IC50 |
| --- | --- |
| Cn1cc(C2=C(c3cn(C)c4cc(-n5cccn5)ccc34)C(=O)NC2=O)c2ccccc21 [Example 8d, 3(1-Methyl-1H-indol-3-yl)-4-(1-methyl-6-pyrazol-1-yl-1H-indol-3-yl)pyrrole-2,5-dione] | 30 nM |
| Cn1cc(C2=C(c3cn(C)c4cc([N+](=O)[O-])ccc34)C(=O)NC2=O)c2ccc(-n3cccn3)cc21 [Example 8c, 3-(1-Methyl-6-nitro-1H-indol-3-yl)-4-(1-methyl-6-pyrazol-1-yl-1H-indol-3-yl)pyrrole-2,5-dione] | 20 nM |
| Cn1cc(C2=C(c3cn(C)c4cc(N5CCCCC5)ccc34)C(=O)NC2=O)c2ccccc21 [Example 12l, 3-(1-Methyl-1H-indol-3-yl)-4-(1-methyl-6-piperidin-1-yl-1H-indol-3-yl)pyrrole-2,5-dione] | 230 nM |
| Cn1nccc1-c1ccc2c(C3=C(c4cn(C)c5ccccc45)C(=O)NC3=O)cn(C)c2c1 [Example 2k, 3-(1-Methyl-1H-indol-3-yl)-4-[1-methyl-6-(2-methyl-2H-pyrazol-3-yl)-1H-indol-3-yl]pyrrole-2,5-dione] | 250 nM |
| Cc1ccc2c(C3=C(c4cn(C)c5cc(N6CCOCC6)ccc45)C(=O)NC3=O)cn(C)c2c1 [Example 12b, 3(1,6-Dimethyl-1H-indol-3-yl)-4-(1-methyl-6-morpholin-4-yl-1H-indol-3-yl)pyrrole-2,5-dione] | < 10 nM |
| Cn1cc(C2=C(c3cn(C)c4cc([N+](=O)[O-])ccc34)C(=O)NC2=O)c2ccc(OCCn3ccnc3)cc21 [Example 17, 3-[6-(2-Imidazol-1-yl-ethoxy)-1-methyl-1H-indol-3-yl]-4-(1-methyl-6-nitro-1H-indol-3-yl)pyrrole-2,5-dione] | 70 nM |
| Cn1cc(C2=C(c3cn(C)c4cc(-c5ncc[nH]5)ccc34)C(=O)NC2=O)c2ccccc21 [Example 2e, 3-[6-(1H-Imidazol-2-yl)-1-methyl-1H-indol-3-yl]-4-(1-methyl-1H-indol-3-yl)pyrrole-2,5-dione] | 80 nM |
| CN1CCN(c2ccc3c(C4=C(c5cn(C)c6ccccc56)C(=O)NC4=O)cn(C)c3c2)CC1 [Example 12k, 3-(1-Methyl-1H-indol-3-yl)-4-[1-methyl-6-(4-methyl-piperazin-1-yl)-1H-indol-3-yl]pyrrole-2,5-dione] | 3410 nM |
| Cc1nccn1-c1ccc2c(C3=C(c4cn(C)c5cc([N+](=O)[O-])ccc45)C(=O)NC3=O)cn(C)c2c1 [Example 8b, 3-[1-Methyl-6-(2-methyl-imidazol-1-yl)-1H-indol-3-yl]-4-(1-methyl-6-nitro-1H-indol-3-yl)-pyrrole-2,5-dione] | 250 nM |
| Cn1cc(C2=C(c3cn(C)c4cc([N+](=O)[O-])ccc34)C(=O)NC2=O)c2ccc(-c3ncc[nH]3)cc21 [Example 2o, 3-[6-(1H-Imidazol-2-yl)-1-methyl-1H-indol-3-yl]-4-(1-methyl-6-nitro-1H-indol-3-yl)-pyrrole-2,5-dione] | 40 nM |
| Cn1cc(C2=C(c3cn(C)c4cc(-n5ccnc5)ccc34)C(=O)NC2=O)c2ccc(C#N)cc21 [Example 10b, 3-[4-(6-Imidazol-1-yl-1-methyl-1H-indol-3-yl)-2,5-dioxo-2,5-dihydro-1H-pyrrole-3-yl]-1-methyl-1H-indole-6-carbonitrile] | 30 nM |
| Cn1cc(C2=C(c3cn(C)c4cc(N5CCOCC5)ccc34)C(=O)NC2=O)c2ccccc21 [Example 11, 3-(1-Methyl-1H-indol-3-yl)-4-(1-methyl-6-morpholin-4-yl-1H-indol-3-yl)pyrrole 2,5-dione] | 20 nM |
| Cn1cc(C2=C(c3cn(C)c4cc(-c5ccco5)ccc34)C(=O)NC2=O)c2ccccc21 [Example 2g, 3-(6-Furan-2-yl-1-methyl-1H-indol-3-yl)-4-(1-methyl-1H-indol-3-yl)pyrrole-2,5-dione] | 20 nM |
| COCn1cc(C2=C(c3cn(C)c4cc(F)ccc34)C(=O)NC2=O)c2ccc(N3CCOCC3)cc21 [Example 12m, 3-(6-Fluoro-1-methyl-1H-indol-3-yl)-4-(1-methoxymethyl-6-morpholin-4-yl-1H-indol-3-yl)pyrrole-2,5-dione] | 170 nM |
| Cn1cc(C2=C(c3cn(C)c4cc([N+](=O)[O-])ccc34)C(=O)NC2=O)c2ccc(-c3cnc[nH]3)cc21 [Example 2f, 3-[6-(3H-Imidazol-4-yl)-1-methyl-1H-indol-3-yl]-4-(1-methyl-6-nitro-3-yl)pyrrole-2,5-dione hydrochloride] | 20 nM |
| Cn1cc(C2=C(c3cn(C)c4cc([N+](=O)[O-])ccc34)C(=O)NC2=O)c2ccc(-n3ccnc3)cc21 [Example 8a, 3-(6-Imidazol-1-yl-1-methyl-1H-indol-3-yl)-4-(1-methyl-6-nitro-1H-indol-3-yl)-pyrrole-2,5-dione] | 30 nM |

| SMILES | IC50 |
| --- | --- |
| Cn1cc(C2=C(c3cn(C)c4cc([N+](=O)[O-])ccc34)C(=O)NC2=O)c2ccc(N3CCCC3)cc21 [Example 12d, 3-(1-Methyl-6-nitro-1H-indol-3-yl)-4-(1-methyl-6-pyrrolidin-1-yl-1H-indol-3-yl)pyrrole-2,5-dione] | 2 nM |
| Cn1nccc1-c1ccc2c(C3=C(c4cn(C)c5cc(Br)ccc45)C(=O)NC3=O)cn(C)c2c1 [Example 2l, 3-(6-Bromo-1-methyl-1H-indol-3-yl)-4-[1-methyl-6-(2-methyl-2H-pyrazol-3yl)-1H-indol-3-yl]pyrrole-2,5-dione] | 70 nM |
| Cn1cc(C2=C(c3cn(C)c4cc(N5CCOCC5)ccc34)C(=O)NC2=O)c2ccc(Cl)cc21 [Example 14c, 3-(6-Chloro-1-methyl-1H-indol-3-yl)-4-(1-methyl-6-morpholin-4-yl-1H-indol-3-yl)pyrrole-2,5-dione] | 2 nM |
| Cn1cc(C2=C(c3c[nH]c4ccccc34)C(=O)NC2=O)c2ccc(N3CCOCC3)cc21 [Example 12c, 3-(1H-Indol-3-yl)-4-(1-methyl-6-morpholin-4-yl-1H-indol-3-yl)pyrrole-2,5-dione] | 70 nM |
| Cn1cc(C2=C(c3cn(C)c4cc(N5CCOCC5)ccc34)C(=O)NC2=O)c2ccc(C#N)cc21 [Example 13, 1-Methyl-3-[4-(1-methyl-6-morpholin-4-yl-1H-indol-3-yl)-2,5-dioxo-2,5-dihydro-1H-pyrrole-3-yl]-1H-indole-6-carbonitrile] | 4 nM |
| Cn1cc(C2=C(c3c[nH]c4ccccc34)C(=O)NC2=O)c2ccc(N3CCCC3)cc21 [Example 12i, 3-(1H-indol-3-yl)-4-(1-methyl-6-pyrrolidin-1-yl-1H-indol-3-yl)-pyrrole-2,5-dione] | 80 nM |
| COc1ccc2c(C3=C(c4cn(C)c5cc(N6CCOCC6)ccc45)C(=O)NC3=O)cn(C)c2c1 [Example 14a, 3-(6-Methoxy-1-methyl-1H-indol-3-yl)-4-(1-methyl-6-morpholin-4-yl-1H-indol-3-yl)pyrrole-2,5-dione] | 20 nM |
| Cn1cc(C2=C(c3c[nH]c4cc(N5CCCC5)ccc34)C(=O)NC2=O)c2ccc(F)cc21 [Example 12e, 3-(6-Fluoro-1-methyl-1H-indol-3-yl)-4-(6-pyrrolidin-1-yl-1H-indol-3-yl)pyrrole-2,5-dione] | 3 nM |
| Cn1cc(C2=C(c3cn(C)c4cc(-n5cccn5)ccc34)C(=O)NC2=O)c2ccc(Br)cc21 [Example 8e, 3-(6-Bromo-1-methyl-1H-indol-3-yl)-4-(1-methyl-6-pyrazol-1-yl-1H-indol-3-yl)pyrrole-2,5-dione] | 25 nM |
| COc1ccc2c(C3=C(c4cn(C)c5cc(N6CCCC6)ccc45)C(=O)NC3=O)cn(C)c2c1 [Example 14g, 3-(6-Methoxy-1-methyl-1H-indol-3-yl)-4-(1-methyl-6-pyrrolidin-1-yl-1H-indol-3-yl)pyrrole-2,5-dione] | 40 nM |
| Cn1cc(C2=C(c3cn(C)c4cc(-c5ccns5)ccc34)C(=O)NC2=O)c2ccccc21 [Example 2n, 3-(6-Isothiazol-5-yl-1-methyl-1H-indol-3-yl)-4-(1-methyl-1H-indol-3-yl)-pyrrole-2,5-dione] | 40 nM |
| Cn1cc(C2=C(c3cn(C)c4cc(-c5cccs5)ccc34)C(=O)NC2=O)c2ccccc21 [Example 3, 3-(1-Methyl-1H-indol-3-yl)-4-(1-methyl-6-thiophen-2-yl-1H-indol-3-yl)pyrrole-2,5 dione] | 40 nM |
| COCc1ccc2c(C3=C(c4cn(C)c5cc(N6CCOCC6)ccc45)C(=O)NC3=O)cn(C)c2c1 [Example 16, 3-(6-methoxymethyl-1-methyl-1H-indol-3-yl)-4-(1-methyl-6-morpholin-4-yl-1H-indol-3-yl)pyrrole-2,5-dione] | 1180 nM |
| Cn1ccnc1-c1ccc2c(C3=C(c4cn(C)c5cc([N+](=O)[O-])ccc45)C(=O)NC3=O)cn(C)c2c1 [Example 2c, 3-[1-Methyl-6-(1-methyl-1H-imidazol-2-yl)-1H-indol-3-yl]-4-(1-methyl-6-nitro-1H-indol-3-yl)pyrrole-2,5-dione] | 30 nM |
| Cn1cc(C2=C(c3c[nH]c4cc(N5CCOCC5)ccc34)C(=O)NC2=O)c2ccccc21 [Example 12o, 3-(1-Methyl-1H-indol-3-yl)-4-(6-morpholin-4-yl-1H-indol-3-yl)pyrrole-2,5-dione] | 37 nM |
| Cn1cc(C2=C(c3cn(C)c4cc(-c5ccsc5)ccc34)C(=O)NC2=O)c2ccccc21 [Example 5, 3-(1-Methyl-1H-indol-3-yl)-4-(1-methyl-6-thiophen-3-yl-1H-indol-3-yl)pyrrole-2,5-dione] | 40 nM |
